# Data from patent US12527753B2, “Cysteamine for the treatment, mitigation and prevention of coronaviral, e.g., SARS-CoV-2, infections” (The Regents of the University of Michigan, priority 2020, dated 2026).
# Test system: SARS-CoV-2 Variants Alpha, Beta, Gamma and Delta
# Test: In vitro activity against SARS-CoV-2 variants (pooled statements)
substance,measurement,setting,value
2-aminoethanethiol [cysteamine],inactivation of the virus in tissue culture,"10 mM solution, contingent on time of exposure and concentration",85-100%
same,inactivation of the variants,"10 mM, 15-90 minutes exposure",near complete inactivation
